For this experiment, the system named is Human umbilical endothelial cells (HUVEC). Description: Inhibition of VEGF165-stimulated HUVEC proliferation (3H-thymidine incorporation). It is filed as cell-based. The note with it: HUVEC stimulated with 5 ng/ml VEGF165 and 10 μg/ml heparin; 76 hours incubation then 16 hours 3H-thymidine; concentration inhibiting proliferation by 50%. As to the method: Human umbilical endothelial cells (HUVEC) were cultivated in IMDM (Gibco BRL), supplemented with 10% foetal calf serum (FBS) (Sigma), 50 μM of β-mercaptoethanol (Fluka), standard antibiotics, 15 μg/ml of endothelial cell growth factor (ECGS, Collaborative Biomedical Products) and 100 μg/ml of heparin (Sigma) on gelatine-coated culture dishes (0.2% gelatine, Sigma) at 37° C., under 5% CO2 in a water-saturated atmosphere.
In order to investigate the inhibitory activity of the compounds according to the invention the cells were “starved” for 16 hours, i.e. kept in culture medium without growth factors (ECGS+heparin). The cells were detached from the culture dishes using trypsin/EDTA and washed once in serum-containing medium. Then they were seeded out in amounts of 2.5×10^3 cells per well.
The proliferation of the cells was stimulated with 5 ng/ml of VEGF165 (vascular endothelial growth factor; H. Weich, GBF Braunschweig) and 10 μg/ml of heparin. As a control, 6 wells in each dish were not stimulated.
The compounds according to the invention were dissolved in 100% dimethylsulphoxide and added to the cultures in various dilutions as triple measurements, the maximum dimethylsulphoxide concentration being 0.3%.
The cells were incubated for 76 hours at 37° C., then for a further 16 hours ^3H-thymidine (0.1 μCi/well, Amersham) was added in order to determine the DNA synthesis. Then the radioactively labelled cells were immobilised on filter mats and the radioactivity incorporated was measured in a β-counter. In order to determine the inhibitory activity of the compounds according to the invention the mean value of the non-stimulated cells was subtracted from the mean value of the factor-stimulated cells (in the presence or absence of the compounds according to the invention).
The relative cell proliferation was calculated as a percentage of the control (HUVEC without inhibitor) and the concentration of active substance which inhibits the proliferation of the cells by 50% (IC50) was determined.
As a reminder, the IC50 is the concentration needed to halve the response being measured. As to “methyl 3-(Z)-[1-{4-[(4-methyl-piperazin-1-yl)-carbonyl]-phenylamino}-1-phenyl-methylidene]-2-indolinone-6-carboxylate [(c)]”, the IC50 amounted to 30 nM.
For `COC(=O)c1ccc2c(c1)NC(=O)/C2=C(\Nc1ccc(C(=O)N(C)CCCN(C)C)cc1)c1ccccc1` [(b), methyl 3-(Z)-[1-{4-[N-(3-dimethylamino-propyl)-N-methyl-carbamoyl]-phenylamino}-1-phenyl-methylidene]-2-indolinone-6-carboxylate], the IC50 stood at 20 nM.
For the compound “methyl 3-(Z)-[1-{4-[(4-ethyl-piperazin-1-yl)-carbonyl]-phenylamino}-1-phenyl-methylidene]-2-indolinone-6-carboxylate [(h)]”, the IC50 is 20 nM.
The result for `COC(=O)c1ccc2c(c1)NC(=O)/C2=C(\Nc1ccc(C(=O)N(C)CCN(C)C)cc1)c1ccccc1` [(a), methyl 3-(Z)-[1-{4-[N-(2-dimethylamino-ethyl)-N-methyl-carbamoyl]-phenylamino}-1-phenyl-methylidene]-2-indolinone-6-carboxylate] reads 40 nM; that for “methyl 3-(Z)-[1-{4-[(4-(2-hydroxy-ethyl)-piperazin-1-yl)-carbonyl]-phenylamino}1-phenyl-methylidene]-2-indolinone-6-carboxylate [(i)]”, 20 nM; that for “methyl 3-(Z)-[1-{4-[(4-hydroxy-piperidin-1-yl)-carbonyl]-phenylamino}-1-phenyl-methylidene]-2-indolinone-6-carboxylate [(d)]”, 50 nM.
